Measured values published in publication PMC6979384, “Characterization of the plant homeodomain (PHD) reader family for their histone tail interactions” (Epigenetics & Chromatin, 2020).
Where no end group is shown, it is not given here.

Legend:
Experiment in all cases: Histone peptide microarray
Assay type in all cases: binding, human
Details in all cases: arrays performed twice, n of 4
[1] = test system: CHD5 (PCC)
Method in brief: (§1)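 GST-tagged PHD finger readers were expressed, purified and applied at 0.5 μM to a microarray of 293 synthetic histone peptides carrying single or combinatorial PTMs, using an optimized protocol. Binding signals are averages with standard deviation from 4 replicates.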

[2] = test system: KDM7A
Method in brief: as §1

[3] = test system: TRIM66 (PB)
Method in brief: as §1

[4] = test system: DPF2 (PPC2W2)
Method in brief: as §1

[5] = test system: TAF3
Method in brief: as §1

[6] = test system: PHF13
Method in brief: as §1

[7] = test system: SP140L
Method in brief: as §1

[8] = test system: PHF2
Method in brief: as §1

[9] = test system: MLL5
Method in brief: as §1

[10] = test system: BAZ2B
Method in brief: as §1

[11] = test system: KDM5A (3)
Method in brief: as §1

[12] = test system: ING5
Method in brief: as §1

[13] = test system: KDM5B (3)
Method in brief: as §1

[14] = test system: ING1
Method in brief: as §1

[15] = test system: CHD4 (PPCC)
Method in brief: as §1

[16] = test system: CHD5 (PPCC)
Method in brief: as §1

[17] = test system: MORC3 (CW)
Method in brief: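 Purified PHD finger domains fused to GST are screened against 293 synthetic histone peptides bearing one or several post-translational modifications. The protein is used at 0.5 μM, and the signal from four replicate arrays is averaged, with standard deviation given.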

[18] = test system: KDM5A (1)
Method in brief: as §1

[19] = test system: AIRE (PP)
Method in brief: as §1

[20] = test system: RAG2
Method in brief: as §1

[21] = test system: PHRF1 (RP)
Method in brief: as §1

[22] = test system: PHF21A
Method in brief: as §1

[23] = test system: ING3
Method in brief: as §1

[24] = test system: ING2
Method in brief: as §1

[25] = test system: DIDO1
Method in brief: as §1

[26] = test system: BPTF (PB)
Method in brief: as §1

[27] = test system: ING4
Method in brief: as §1

[28] = test system: KDM5B (1)
Method in brief: as §1

[29] = test system: PHF8
Method in brief: as §1

[30] = test system: PHF23
Method in brief: as §1

[31] = test system: KDM4C (TTP)
Method in brief: as §1

[32] = histone peptide array, GST-tagged reader
[33] = histone peptide array, GST-tagged reader, PB = PHD + Bromodomain
[34] = histone peptide array, GST-tagged reader, PPCC = Dual PHD + Dual Chromodomain

H3.3K36ac (27-45): H3.3 27-45 (KSAPSTGGVK(Ac)KPHRYRPGT; UniProt P84243 28-46, looked up, fragment)
Array Heatmap signal, CHD5 (PCC) ([1]; histone peptide array, GST-tagged reader, PCC = PHD + Dual Chromodomain): 0.818 | Array Heatmap signal, KDM7A [2, 32]: 0.4861 | Array Heatmap signal, TRIM66 (PB) [3, 33]: 0.5797 | Array Heatmap signal, DPF2 (PPC2W2) ([4]; histone peptide array, GST-tagged reader, PPC2W2 = Dual PHD + C2W2-type Zn-finger): 0.6599 | Array Heatmap signal, TAF3 [5, 32]: 0.2777 | Array Heatmap signal, PHF13 [6, 32]: 0.6099 | Array Heatmap signal, SP140L [7, 32]: 0.378 | Array Heatmap signal, PHF2 [8, 32]: 0.4404 | Array Heatmap signal, MLL5 [9, 32]: 0.5589 | Array Heatmap signal, BAZ2B [10, 32]: 0.4933 | Array Heatmap signal, KDM5A (3) [11, 32]: 0.4209 | Array Heatmap signal, ING5 [12, 32]: 0.3709 | Array Heatmap signal, KDM5B (3) [13, 32]: 0.5076 | Array Heatmap signal, ING1 [14, 32]: 0.4834 | Array Heatmap signal, CHD4 (PPCC) [15, 34]: 0.5592 | Array Heatmap signal, CHD5 (PPCC) [16, 34]: 0.5516 | Array Heatmap signal, MORC3 (CW) ([17]; histone peptide array, GST-tagged reader, CW = CW-type Zn-finger): 0.2989 | Array Heatmap signal, KDM5A (1) [18, 32]: 0.4872 | Array Heatmap signal, AIRE (PP) [19, 32]: 0.5459 | Array Heatmap signal, RAG2 [20, 32]: 0.2614 | Array Heatmap signal, PHRF1 (RP) [21, 32]: 0.3938 | Array Heatmap signal, PHF21A [22, 32]: 0.4713 | Array Heatmap signal, ING3 [23, 32]: 0.4435 | Array Heatmap signal, ING2 [24, 32]: 0.5814 | Array Heatmap signal, DIDO1 [25, 32]: 0.652 | Array Heatmap signal, BPTF (PB) [26, 33]: 0.3342 | Array Heatmap signal, ING4 [27, 32]: 0.4648 | Array Heatmap signal, KDM5B (1) [28, 32]: 0.6658 | Array Heatmap signal, PHF8 [29, 32]: 0.3248 | Array Heatmap signal, PHF23 [30, 32]: 0.4952 | Array Heatmap signal, KDM4C (TTP) ([31]; histone peptide array, GST-tagged reader, TTP = Tandem Tudor domain + PHD): 0.5383

Myc-Tag: 1-10 (ILKKATAYIL; Myc epitope tag; UniProt P01106 410-419, looked up, fragment)
Array Heatmap value (peptide array binding signal) ([1]; CHD5 (PCC), GST-tagged): 0.7878 | Array Heatmap value (peptide array binding signal) ([2]; KDM7A, GST-tagged): 0.3296 | Array Heatmap value (peptide array binding signal) ([3]; TRIM66 (PB), GST-tagged): 0.6061 | Array Heatmap value (peptide array binding signal) ([4]; DPF2 (PPC2W2), GST-tagged): 0.6957 | Array Heatmap value (peptide array binding signal) ([5]; TAF3, GST-tagged): 0.2522 | Array Heatmap value (peptide array binding signal) ([6]; PHF13, GST-tagged): 0.6119 | Array Heatmap value (peptide array binding signal) ([7]; SP140L, GST-tagged): 0.3664 | Array Heatmap value (peptide array binding signal) ([8]; PHF2, GST-tagged): 0.5897 | Array Heatmap value (peptide array binding signal) ([9]; MLL5, GST-tagged): 0.5446 | Array Heatmap value (peptide array binding signal) ([10]; BAZ2B, GST-tagged): 0.4426 | Array Heatmap value (peptide array binding signal) ([11]; KDM5A (3), GST-tagged): 0.493 | Array Heatmap value (peptide array binding signal) ([12]; ING5, GST-tagged): 0.3459 | Array Heatmap value (peptide array binding signal) ([13]; KDM5B (3), GST-tagged): 0.4322 | Array Heatmap value (peptide array binding signal) ([14]; ING1, GST-tagged): 0.569 | Array Heatmap value (peptide array binding signal) ([15]; CHD4 (PPCC), GST-tagged): 0.5842 | Array Heatmap value (peptide array binding signal) ([16]; CHD5 (PPCC), GST-tagged): 0.538 | Array Heatmap value (peptide array binding signal) ([17]; MORC3 (CW), GST-tagged): 0.3567 | Array Heatmap value (peptide array binding signal) ([18]; KDM5A (1), GST-tagged): 0.4279 | Array Heatmap value (peptide array binding signal) ([19]; AIRE (PP), GST-tagged): 0.3997 | Array Heatmap value (peptide array binding signal) ([20]; RAG2, GST-tagged): 0.2496 | Array Heatmap value (peptide array binding signal) ([21]; PHRF1 (RP), GST-tagged): 0.4883 | Array Heatmap value (peptide array binding signal) ([22]; PHF21A, GST-tagged): 0.4264 | Array Heatmap value (peptide array binding signal) ([23]; ING3, GST-tagged): 0.5082 | Array Heatmap value (peptide array binding signal) ([24]; ING2, GST-tagged): 0.5931 | Array Heatmap value (peptide array binding signal) ([25]; DIDO1, GST-tagged): 0.7478 | Array Heatmap value (peptide array binding signal) ([26]; BPTF (PB), GST-tagged): 0.3544 | Array Heatmap value (peptide array binding signal) ([27]; ING4, GST-tagged): 0.4476 | Array Heatmap value (peptide array binding signal) ([28]; KDM5B (1), GST-tagged): 0.6488 | Array Heatmap value (peptide array binding signal) ([29]; PHF8, GST-tagged): 0.3567 | Array Heatmap value (peptide array binding signal) ([30]; PHF23, GST-tagged): 0.5279 | Array Heatmap value (peptide array binding signal) ([31]; KDM4C (TTP), GST-tagged): 0.4677
